Key:
[1] = target: EGFR L858R mutant type (Homo sapiens (Human), UniProt P00533, L858R); test: Kinase inhibitory activity, isotopic labeling (γ-33P-ATP); assay type: biochemical; details: ATP 200 μM (Km)
Method: (§1) The object of this assay was to test the inventive compounds for the kinase inhibitory activity in vitro. In this assay, an isotopic labeling method was used to label the γ phosphate group on ATP. […] Staurosporine was used as a reference molecule (or referred to as a positive control). […] The IC50 value can be obtained by the calculation of the inhibitory rates at a series of different concentrations of the tested compounds.
(§2) To a reaction tube were successively added the buffer solution (8 mM MOPS, pH 7.0, 0.2 mM EDTA, 10 mM MnCl2), the kinase to be tested (5-10 mU) (EGFR/ALK/BTK/c-KIT/c-SRC/MET/PDGFRα/VEGFR2), the substrate for the kinase to be tested (a reference material), 10 mM of the solution of magnesium acetate and γ-^33 P-ATP, and different concentrations of the tested compounds. […] The reaction was terminated with […] of the 3% phosphate buffer solution. 10 μL of the reaction liquid was titrated on the Filtermat A membrane. The membrane was washed with 75 mM of the phosphate solution thrice (5 minutes each time), and then with methanol once, and finally dried. The membrane was subjected to a scintillation counting. The value of the scintillation counting reflected the phosphorylation level of the substrate and therefore could characterize the inhibition of the kinase activity.

[2] = target: EGFR L858R/T790M double mutant type (Homo sapiens (Human), UniProt P00533, L858R/T790M); test: as above; assay type: biochemical; details: ATP 45 μM (Km)
Method: as §1, §2

[3] = target: EGFR wild type (Homo sapiens (Human), UniProt P00533); test: as above; assay type: biochemical; details: ATP 10 μM (Km)
Method: as §1, §2

[4] = target: ALK (Homo sapiens (Human), UniProt Q9UM73); test: as above; assay type: biochemical; details: compound at 10 μM
[5] = target: BTK (Homo sapiens (Human), UniProt Q06187); test: as above; assay type: biochemical; details: compound at 10 μM
BTK, sequence (Q06187 whole entry): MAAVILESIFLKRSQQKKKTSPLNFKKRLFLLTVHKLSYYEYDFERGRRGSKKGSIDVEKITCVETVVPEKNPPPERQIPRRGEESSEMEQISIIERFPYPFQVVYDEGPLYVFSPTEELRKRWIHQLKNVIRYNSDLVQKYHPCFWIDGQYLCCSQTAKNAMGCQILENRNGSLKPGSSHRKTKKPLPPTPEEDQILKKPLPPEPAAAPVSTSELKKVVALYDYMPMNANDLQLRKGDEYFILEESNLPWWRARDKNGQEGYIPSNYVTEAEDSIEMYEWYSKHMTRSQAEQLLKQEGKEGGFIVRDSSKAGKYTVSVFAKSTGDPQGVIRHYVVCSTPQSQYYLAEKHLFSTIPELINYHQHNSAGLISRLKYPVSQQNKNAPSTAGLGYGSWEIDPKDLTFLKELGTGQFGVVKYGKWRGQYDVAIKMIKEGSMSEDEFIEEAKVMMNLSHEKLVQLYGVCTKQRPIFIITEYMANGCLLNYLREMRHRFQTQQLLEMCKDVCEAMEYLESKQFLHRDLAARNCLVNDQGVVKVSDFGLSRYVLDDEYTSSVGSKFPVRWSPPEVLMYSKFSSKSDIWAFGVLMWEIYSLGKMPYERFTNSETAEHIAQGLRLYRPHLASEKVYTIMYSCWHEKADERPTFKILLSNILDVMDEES

[6] = target: FLT3 (Homo sapiens (Human), UniProt P36888); test: as above; assay type: biochemical; details: compound at 10 μM
FLT3, sequence (P36888 27-993): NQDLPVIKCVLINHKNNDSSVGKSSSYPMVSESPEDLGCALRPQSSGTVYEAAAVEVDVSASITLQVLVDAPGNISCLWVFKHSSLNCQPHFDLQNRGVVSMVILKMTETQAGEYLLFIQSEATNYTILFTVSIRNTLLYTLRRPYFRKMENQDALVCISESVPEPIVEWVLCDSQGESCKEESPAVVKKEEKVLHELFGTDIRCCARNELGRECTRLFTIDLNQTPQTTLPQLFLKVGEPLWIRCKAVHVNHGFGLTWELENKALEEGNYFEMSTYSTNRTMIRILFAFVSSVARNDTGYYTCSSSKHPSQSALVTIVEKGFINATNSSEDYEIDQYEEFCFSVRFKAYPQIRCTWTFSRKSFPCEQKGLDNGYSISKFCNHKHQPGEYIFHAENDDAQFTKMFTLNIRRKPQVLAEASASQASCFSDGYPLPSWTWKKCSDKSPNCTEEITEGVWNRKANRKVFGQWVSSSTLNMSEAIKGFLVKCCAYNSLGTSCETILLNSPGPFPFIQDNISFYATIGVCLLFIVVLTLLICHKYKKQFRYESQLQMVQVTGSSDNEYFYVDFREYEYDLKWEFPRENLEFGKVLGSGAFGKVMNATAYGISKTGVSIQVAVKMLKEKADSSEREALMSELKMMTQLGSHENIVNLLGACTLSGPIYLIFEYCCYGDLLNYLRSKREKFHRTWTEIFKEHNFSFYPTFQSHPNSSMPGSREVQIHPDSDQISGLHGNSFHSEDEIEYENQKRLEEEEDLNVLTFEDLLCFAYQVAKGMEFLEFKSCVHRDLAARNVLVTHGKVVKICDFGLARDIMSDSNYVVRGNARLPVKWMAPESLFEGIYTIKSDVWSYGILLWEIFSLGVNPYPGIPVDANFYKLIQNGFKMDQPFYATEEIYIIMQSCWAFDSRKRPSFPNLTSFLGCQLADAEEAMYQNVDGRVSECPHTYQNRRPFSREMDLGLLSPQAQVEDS

[7] = target: MET (Homo sapiens (Human), UniProt P08581); test: as above; assay type: biochemical; details: compound at 10 μM
[8] = target: PDGFRα (Homo sapiens (Human), UniProt P16234); test: as above; assay type: biochemical; details: compound at 10 μM
[9] = target: VEGFR2 (Homo sapiens (Human), UniProt P35968); test: as above; assay type: biochemical; details: ATP 90 μM (Km)
VEGFR2, sequence (P35968 20-1356): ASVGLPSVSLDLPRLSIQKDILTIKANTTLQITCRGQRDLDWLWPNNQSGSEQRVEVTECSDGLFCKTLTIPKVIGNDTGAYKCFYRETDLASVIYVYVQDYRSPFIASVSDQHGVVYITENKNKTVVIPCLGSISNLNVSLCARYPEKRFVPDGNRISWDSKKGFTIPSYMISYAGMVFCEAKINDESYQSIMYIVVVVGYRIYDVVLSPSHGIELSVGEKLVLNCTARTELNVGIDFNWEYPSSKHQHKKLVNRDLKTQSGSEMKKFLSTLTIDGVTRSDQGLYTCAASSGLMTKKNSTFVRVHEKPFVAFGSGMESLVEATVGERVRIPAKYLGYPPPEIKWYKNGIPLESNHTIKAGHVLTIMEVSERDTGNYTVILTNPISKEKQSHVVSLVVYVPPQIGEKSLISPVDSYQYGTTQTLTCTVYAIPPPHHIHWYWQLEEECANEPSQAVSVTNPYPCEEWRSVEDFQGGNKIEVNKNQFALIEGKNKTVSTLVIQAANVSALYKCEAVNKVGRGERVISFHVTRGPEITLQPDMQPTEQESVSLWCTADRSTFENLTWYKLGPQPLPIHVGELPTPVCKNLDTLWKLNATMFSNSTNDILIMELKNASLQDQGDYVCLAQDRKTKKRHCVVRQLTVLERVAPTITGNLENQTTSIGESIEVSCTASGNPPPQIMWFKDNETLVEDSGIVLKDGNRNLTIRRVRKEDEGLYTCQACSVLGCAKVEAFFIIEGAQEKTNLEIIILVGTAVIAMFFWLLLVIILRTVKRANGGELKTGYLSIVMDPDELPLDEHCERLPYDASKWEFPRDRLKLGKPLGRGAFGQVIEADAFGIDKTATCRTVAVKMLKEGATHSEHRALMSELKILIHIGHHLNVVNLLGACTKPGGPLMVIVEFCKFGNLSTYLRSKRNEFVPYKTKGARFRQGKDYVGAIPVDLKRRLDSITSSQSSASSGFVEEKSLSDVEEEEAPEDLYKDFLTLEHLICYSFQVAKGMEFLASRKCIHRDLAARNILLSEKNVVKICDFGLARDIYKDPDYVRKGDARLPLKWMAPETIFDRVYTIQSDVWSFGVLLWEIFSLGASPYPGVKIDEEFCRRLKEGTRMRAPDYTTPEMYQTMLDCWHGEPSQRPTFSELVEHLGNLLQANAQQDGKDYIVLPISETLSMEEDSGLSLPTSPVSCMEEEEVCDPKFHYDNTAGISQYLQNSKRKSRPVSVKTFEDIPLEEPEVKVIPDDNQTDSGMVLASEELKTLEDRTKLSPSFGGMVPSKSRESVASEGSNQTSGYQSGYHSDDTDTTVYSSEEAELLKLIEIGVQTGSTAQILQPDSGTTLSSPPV
In short: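 IC50s derive from inhibitory rates over a compound dilution series, with substrate phosphorylation quantified by scintillation counting on washed Filtermat A membranes. Reactions contained 5-10 mU kinase, substrate, γ-33P-ATP, 10 mM magnesium acetate in MOPS pH 7.0/EDTA/MnCl2 buffer; staurosporine served as reference.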

[10] = target: c-KIT (Homo sapiens (Human), UniProt P10721); test: as above; assay type: biochemical; details: compound at 10 μM
c-KIT, sequence (P10721 26-976): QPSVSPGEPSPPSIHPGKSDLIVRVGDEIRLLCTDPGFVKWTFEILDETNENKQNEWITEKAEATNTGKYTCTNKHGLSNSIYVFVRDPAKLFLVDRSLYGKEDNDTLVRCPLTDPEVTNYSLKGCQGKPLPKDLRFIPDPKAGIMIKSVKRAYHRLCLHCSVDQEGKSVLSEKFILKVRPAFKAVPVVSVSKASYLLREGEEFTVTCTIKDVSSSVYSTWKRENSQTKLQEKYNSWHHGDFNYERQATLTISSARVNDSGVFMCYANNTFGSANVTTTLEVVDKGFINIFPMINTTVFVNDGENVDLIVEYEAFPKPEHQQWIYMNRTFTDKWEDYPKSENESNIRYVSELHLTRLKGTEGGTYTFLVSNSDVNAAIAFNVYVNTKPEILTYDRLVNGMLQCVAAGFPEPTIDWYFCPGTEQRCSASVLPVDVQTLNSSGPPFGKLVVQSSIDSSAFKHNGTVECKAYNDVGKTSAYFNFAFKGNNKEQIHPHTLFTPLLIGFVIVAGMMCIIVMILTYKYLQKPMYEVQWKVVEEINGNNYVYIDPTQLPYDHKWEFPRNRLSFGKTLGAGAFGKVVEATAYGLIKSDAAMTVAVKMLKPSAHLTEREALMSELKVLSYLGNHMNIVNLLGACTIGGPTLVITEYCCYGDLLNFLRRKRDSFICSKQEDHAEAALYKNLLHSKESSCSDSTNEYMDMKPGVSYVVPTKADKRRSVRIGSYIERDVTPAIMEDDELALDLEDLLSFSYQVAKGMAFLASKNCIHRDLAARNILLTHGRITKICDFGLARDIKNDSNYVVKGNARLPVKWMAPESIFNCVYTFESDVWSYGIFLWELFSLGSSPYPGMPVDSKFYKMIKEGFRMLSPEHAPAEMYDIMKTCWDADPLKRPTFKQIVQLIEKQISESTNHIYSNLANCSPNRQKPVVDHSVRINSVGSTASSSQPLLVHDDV

[11] = target: c-SRC (Homo sapiens (Human), UniProt P12931); test: as above; assay type: biochemical; details: compound at 10 μM
[12] = tested on: acute myelogenous leukemia cell strain MV4-11; test: In-vitro tumor cell proliferation inhibition, MTT; assay type: cell-based, human; details: 72 hours
[13] = tested on: colon cancer cell strain HCT116; test: In-vitro tumor cell proliferation inhibition, MTT; assay type: cell-based, human; details: 72 hours
[14] = tested on: colon cancer cell strain SW480; test: In-vitro tumor cell proliferation inhibition, MTT; assay type: cell-based, human; details: 72 hours
[15] = tested on: squamous cell carcinoma cell strain A431; test: In-vitro tumor cell proliferation inhibition, MTT; assay type: cell-based, human; details: 72 hours
In short: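 MTT colorimetric proliferation test: plated cells exposed 72 h to compound dilution series, DMSO 1% solvent control included. A570 gave inhibition relative to drug-free control; IC50 or inhibitory rate from at least three experiments. HCC827 and BT474 grown in RPMI-1640, A431 and SW620 in DMEM, both with 10% FBS.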

EGFR L858R mutant type, sequence (P00533 25-1210 L858R): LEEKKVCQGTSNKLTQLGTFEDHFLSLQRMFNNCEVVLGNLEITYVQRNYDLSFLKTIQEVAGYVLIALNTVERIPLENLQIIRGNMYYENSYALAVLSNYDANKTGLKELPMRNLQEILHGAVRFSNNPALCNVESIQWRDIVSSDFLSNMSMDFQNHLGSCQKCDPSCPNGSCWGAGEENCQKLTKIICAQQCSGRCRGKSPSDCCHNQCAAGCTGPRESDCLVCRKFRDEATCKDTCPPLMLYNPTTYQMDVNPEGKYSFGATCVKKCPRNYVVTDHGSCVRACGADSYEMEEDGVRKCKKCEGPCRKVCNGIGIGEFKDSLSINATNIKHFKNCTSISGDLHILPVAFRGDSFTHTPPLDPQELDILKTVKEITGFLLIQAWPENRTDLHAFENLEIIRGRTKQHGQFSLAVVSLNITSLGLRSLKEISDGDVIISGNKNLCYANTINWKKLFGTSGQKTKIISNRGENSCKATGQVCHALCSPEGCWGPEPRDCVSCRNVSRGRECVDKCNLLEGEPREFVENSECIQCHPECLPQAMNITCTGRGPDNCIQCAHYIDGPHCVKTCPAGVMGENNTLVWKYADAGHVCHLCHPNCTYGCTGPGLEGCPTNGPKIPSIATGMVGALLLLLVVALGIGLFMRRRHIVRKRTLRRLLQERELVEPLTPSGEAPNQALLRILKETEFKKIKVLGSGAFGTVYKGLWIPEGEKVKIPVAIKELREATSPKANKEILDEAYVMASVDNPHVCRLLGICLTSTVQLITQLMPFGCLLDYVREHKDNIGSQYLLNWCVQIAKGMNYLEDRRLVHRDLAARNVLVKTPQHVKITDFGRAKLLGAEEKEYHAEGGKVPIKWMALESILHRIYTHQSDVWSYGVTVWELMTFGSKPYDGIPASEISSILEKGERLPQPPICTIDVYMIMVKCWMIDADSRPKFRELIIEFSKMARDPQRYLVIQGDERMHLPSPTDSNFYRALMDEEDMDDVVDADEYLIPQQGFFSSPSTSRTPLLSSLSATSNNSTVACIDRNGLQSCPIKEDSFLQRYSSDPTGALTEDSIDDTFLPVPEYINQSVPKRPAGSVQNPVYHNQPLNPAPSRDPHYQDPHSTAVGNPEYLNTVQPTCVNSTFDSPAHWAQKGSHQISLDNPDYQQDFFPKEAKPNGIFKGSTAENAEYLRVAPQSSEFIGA

Structure (SMILES) | IC50 [1] | IC50 [2] | IC50 [3] | The kinase activity inhibitory rate (%) by the tested compounds at 10 μM ALK [4] | The kinase activity inhibitory rate (%) by the tested compounds at 10 μM BTK [5] | The kinase activity inhibitory rate (%) by the tested compounds at 10 μM FLT3 [6] | The kinase activity inhibitory rate (%) by the tested compounds at 10 μM MET [7] | The kinase activity inhibitory rate (%) by the tested compounds at 10 μM PDGFRα [8] | IC50 [9] | The kinase activity inhibitory rate (%) by the tested compounds at 10 μM c-KIT [10] | The kinase activity inhibitory rate (%) by the tested compounds at 10 μM c-SRC [11] | IC50 [12] | IC50 [13] | IC50 [14] | IC50 [15]
CN1CCN(c2ccc(Nc3ncc4nc(Nc5ccccc5)n(C5CC5)c4n3)cc2)CC1 [Compounds 8-23] | 0.002 µM | 0.041 µM | 0.007 µM | 3% | 30% | 68% | 1% | 28% | > 1000 nM | 26% | 83% | 241 nM | > 10000 nM | > 10000 nM | 7040 nM
CN1CCN(c2ccc(Nc3ncc4nc(Nc5ccccc5)n(C)c4n3)cc2)CC1 [Compounds 8-24] | 0.003 µM | 0.522 µM | 0.012 µM | 8% | 14% | 75% | 0% | 29% | > 1000 nM | 48% | 75% | 288 nM | 1380 nM | > 10000 nM | 9650 nM
CN1CCN(c2ccc(Nc3ncc4nc(Nc5ccccc5)[nH]c4n3)cc2)CC1 [Compounds 8-25] | 0.005 µM | 0.458 µM | 0.029 µM | 13% | 45% | 32% | 0% | 21% | > 1000 nM | 8% | 78% | 7900 nM | > 10000 nM | > 10000 nM | > 10000 nM
CC(C)n1c(Nc2ccc(C(F)(F)F)cc2)nc2cnc(Nc3ccc(N4CCN(C)CC4)cc3)nc21 [Compounds 8-27] | 0.005 µM | 0.054 µM | 0.034 µM | 30% | 74% | 83% | 36% | 68% | 9 nM | 93% | 98% | 88 nM | > 1000 nM | 2600 nM | 2350 nM
CC(C)n1c(Nc2cccnc2)nc2cnc(Nc3ccc(N4CCN(C)CC4)cc3)nc21 [Compounds 8-29] | 0.004 µM | 0.064 µM | 0.031 µM | 15% | 60% | 99% | 50% | 42% | > 1000 nM | 36% | 97% | 4 nM | 2480 nM | > 10000 nM | 9020 nM
CC(C)n1c(NC2CCCCC2)nc2cnc(Nc3ccc(N4CCN(C)CC4)cc3)nc21 [Compounds 8-30] | 0.005 µM | 0.228 µM | 0.015 µM | 8% | 25% | 43% | 0% | 21% | > 1000 nM | 0% | 67% | 7960 nM | > 10000 nM | > 10000 nM | > 10000 nM
C=CC(=O)Nc1cccc(Nc2ncc3nc(Nc4ccccc4)n(C(C)C)c3n2)c1 [Compounds 8-38] | 0.0006 µM | 0.037 µM | 0.002 µM | 22% | 93% | 86% | 74% | 55% | > 1000 nM | 63% | 93% | 730 nM | 443 nM | > 10000 nM | 179 nM

Source: patent US9096601B2 (CSPC Zhongqi Pharmaceutical Technology (Shijiazhuang) Co., …, priority 2010, dated 2015)
